Assay results published in patent US20240058288A1, “DRUG COCKTAIL FOR TREATMENT OF PARKINSON'S DISEASE, LEWY BODY DISEASE AND MULTIPLE SYSTEM ATROPHY” (ALETA NEUROSCIENCE, LLC, priority 2021, published 2024).

Columns and labels:
TNF-α = test: LPS/ATP-induced TNF-α secretion by human microglia cells (Luminex); type: cell-based; details: as compared with […] distilled water in presence of LPS and ATP
Source text: (§1) In addition to the studies discussed above assessing activity of combinations of drugs on MPP+-induced neurodegeneration toxicity on human dopaminergic neurons and measuring neuronal growth and neurite branching, we also assessed combinations of drugs in reducing lipopolysaccharide (LPS, from E. coli)-induced neuroinflammation.
(§2) Lipopolysaccharides are important outer membrane components of gram-negative bacteria such as E. coli and salmonella. They are large amphipathic glycoconjugates that typically consist of a lipid domain (hydrophobic) attached to a core oligosaccharide and a distal polysaccharide. LPS binds to Toll-like receptor 4 (TLR4) and activates microglia (51) which in turn increases secretion of pro-inflammatory cytokines such as interleukin-6 (IL-6), tumor necrosis factor-α (TNF-α), and CXCL1/GROα.
(§3) Microglia cells were obtained from an iCell® Microglia kit, 01279 (Catalogue N° R1131) from FUJIFILM Cellular Dynamics. We followed the manufacturer's protocol for activation of the microglial cells with LPS/ATP to subsequently measure the effect of the study drugs on pro-inflammatory cytokines IL-6, TNF-α and CXCL1/GROα.
(§4) All cell culture procedures were performed in aseptic conditions, under a laminar flow hood. Microglia were thawed and cultured following the provider's instructions. The microglia were plated at 50,000 cells per well of a Corning Primaria 96 well plate (Ref N° 353872) in 100 μL of growth medium. Cells were incubated at 37° C./5% CO2 in a humidified cell culture incubator.
(§5) Three days after cell plating, the test or reference substances (25 μL of solutions at 5×) were applied 1 hour before LPS and ATP stimulation.
(§6) One hour later, 12.5 μL of test or reference substances were added again at 2× concentrated followed by 12.5 μL of LPS at 12× concentration. Fifty microliters of ATP were introduced at 4× concentration, 5 h 30 min after incubation with LPS.
(§7) Six hours after LPS incubation, the supernatant of each well was collected and centrifugated at 1000 g for 10 minutes to remove the cells and debris.
(§8) Fifty microliters of supernatant from NT and LPS+ATP-treated wells were used to determine cytokine secretion (IL-6, TNF-α, CXCL1/GROα) by Luminex platform according to the provider's instructions. Samples were diluted prior to the assay to fit within the standard range if needed. Three wells were tested per each condition (Table 10). Cytokines levels in the supernatant were expressed in pg/mL. The data was analyzed using a One-Way ANOVA followed by Bonferroni test.

IL-1β = test: LPS/ATP-induced IL-1β in human microglia cells; type: cell-based; details: as compared with […] distilled water in presence of LPS and ATP
IL-6 = test: LPS/ATP-induced IL-6 secretion by human microglia cells (Luminex); type: cell-based; details: as compared with […] distilled water in presence of LPS and ATP
Source text: as §1, §2, §3, §4, §5, §6, §7, §8

[1] = PD patients, small double-blind placebo controlled trial; cited from earlier work
[2] = system: human dopaminergic neurons (iCell DopaNeurons); test: MPP+-induced neurotoxicity: neurite outgrowth (neurite length, branch points) of iCell DopaNeurons, Incucyte; type: cell-based; details: MPP+ 100 μM; for Neurite Length Data, Mean ± S.D.: Table 5.1 (FIG. 5A); for Neurite Length Data, Mean ± S.D. / Neurite Branching Data, Mean ± S.D.: conditions 17-28, AUC of kinetic data; for Neurite Branching Data, Mean ± S.D.: Table 5.2 (FIG. 5B); for Neurite length, plate 2, Mean ± S.D.: Table 6.2 (FIG. 7A); for effects on neurite outgrowth: vs MPP+ alone
Source text: (§9) We conducted an in vitro study of the drugs in Table 1 to evaluate the neuroprotective effects of 44 conditions of treatment (Table 2, experiments 1-41; 51-53) against MPP+-induced neurodegeneration toxicity on human dopaminergic neurons (iCell® DopaNeurons: iPS cell-derived human midbrain floorplate dopaminergic neurons). Further combinations (Table 2, experiments 42-50 and Table 3) are also disclosed.
iCell DOPA neurons are neural floor plate-derived midbrain dopaminergic neurons generated from human induced pluripotent stem cells (iPSCs). Dopaminergic neurons, specifically those located in the floor plate-derived midbrain are implicated in neurological disorders such as Parkinson's disease, MSA and DLBD among others. Thus iCell DopaNeurons provide a highly relevant in vitro model to investigate these types of pathologies (42, 43). The iCellDopa neurons were supplied from FUJIFILM Cellular Dynamics.
(§10) Three different measurements were made in the experiments. 1. Neurite length in mm is a measure of increase in dendrite length of neurons. […] 2. neurite branching is measure of dendrite branching. […] 3. Cytolysis of the cells is a measure of cell death. […] Experimental conditions were measured relative to the results of healthy cells in the studies.
(§11) Procedure. iCell DOPA neurons were thawed and cultured following the provider's instructions in Brainphys medium+provided supplements+1% N2 supplement (Stemcell Technologies)+penicillin/streptomycin+Laminin. They were plated at 20000 cells per well of a 384 well plate (pre-coated with poly-D-lysine and Laminin) in 70 μL of growth medium. Cells were incubated at 37° C./5% CO2 in a humidified cell culture incubator. Half of the culture medium was changed twice a week.
(§12) MPP+-induced neurotoxicity: 24 hours after neuronal plating, half of the medium was removed and the test compounds were applied with MPP+ treatment, both concentrated at 4×, were added to the wells. For each condition, six aliquots were added, corresponding to columns A-F in Table 2. Except for the NT/NT row, in each row, either the compound indicated dissolved in its vehicle noted in Table 1 was added, or only a vehicle was added as indicated. Column F is an indicator of whether MPP+ was added. If not, only the medium was added.
(§13) For the evaluation of conditions 1-28, Neurite outgrowth was followed for subsequent 48 hours using an Incucyte Zoom platform with one phase contrast image every 4 hours, using a 20× objective. After 48 hours, the medium containing test compounds and MPP+ was removed and replaced by fresh medium containing a fluorescent cytolysis marker (red fluorescence) and a live cell marker (green fluorescence). For the evaluation of conditions 29-53, Neurite outgrowth was followed similarly for subsequent 72 hours after MPP+ was added.
Each condition 1-41 and 51-53 was repeated in 8 wells of a 384 well plate, that is, each test condition studied in Table 2 was repeated eight times. NT/NT were cells in the standard medium only. Control/NT are the cells in the vehicle (as described above), with and without MPP+.
Assay endpoints and data analysis. Phase contrast images were analyzed at each time point to determine the neurite length and number of branch points per mm^2. Kinetic data was plotted and kinetics were normalized by subtracting the value of the first data point (at time of treatment), allowing to measure changes in neurite outgrowth only from the onset of the treatment, starting at zero. Area Under Curve (AUC) of kinetic data was obtained and used for plotting compound's effects and perform statistical analyzes.
(§14) Statistical analysis. We used one-way ANOVA followed by Bonferroni's multiple comparisons test.

[3] = system: human dopaminergic neurons (iCell DopaNeurons); test: MPP+-induced neurotoxicity: cytolysis of iCell DopaNeurons; type: cell-based; details: MPP+ 100 μM; Table 8.2 (FIG. 7C); PCI 30 μM
Source text: as §9, §10, §11, §12, §13
Data was normalized to control conditions as there is basal cytolysis in the cell culture after thawing.
Fluorescently immuno-stained cells were imaged on a high content imaging platform. Individual segmentation of cells was performed by image analysis of the MAP2 and NeuN staining. The number of neurons and the neurite length were measured. The percentage of cytolyzed cells was also calculated.
as §14

CXCL1/GROα = test: LPS/ATP-induced CXCL1/GROα secretion by human microglia cells (Luminex); type: cell-based; details: as compared with […] distilled water in presence of LPS and ATP
Source text: as §1, §2, §3, §4, §5, §6, §7, §8

SMILES	concentration of TNF-α (TNF-α)	concentration of IL-1β (IL-1β)	concentration of IL-6 (IL-6)	substantia nigra iron deposits (MRI) and motor scores of disease progression [1]	Neurite Length Data, Mean ± S.D. [2]	Neurite Branching Data, Mean ± S.D. [2]	Neurite length, plate 2, Mean ± S.D. ([2]; followed 72 hours, PCI 30 μM)	Neurite Branching Data, Plate 2, Mean ± S.D. ([2]; Table 7.2 (FIG. 7B), followed 72 hours, PCI 30 μM)	effects on neurite outgrowth [2]	Cytolysis, %, Plate 2, Mean ± S.D. [3]	concentration of GROα (CXCL1/GROα)
CC(C)(O)c1coc(S(=O)(=O)NC(=O)Nc2c3c(cc4c2CCC4)CCC3)c1 [MCC950]	significantly decreased	significantly decreased	significantly decreased	–	–	–	–	–	–	–	–
Cc1c(O)c(=O)ccn1C [DFP, Deferiprone]	–	–	–	showed improvement	874.5 ± 190.4 mm/mm^2	24282.5 ± 6612.9 per mm^2	1303.0 ± 378.7 mm/mm^2	51711.3 ± 15178.4 per mm^2	no significant effects	71.91 ± 1.28%	–
CCOC(=O)C1=CCCC[C@H]1S(=O)(=O)Nc1ccc(F)cc1Cl [TAK-242]	significantly decreased	significantly decreased	significantly decreased	–	–	–	–	–	–	–	significantly decreased
Nc1c(Br)cc(Br)cc1CN[C@H]1CC[C@H](O)CC1 [AMB, Ambroxol]	–	–	–	–	763.9 ± 209.8 mm/mm^2	20281.6 ± 8723.4 per mm^2	1332.1 ± 174.8 mm/mm^2	–	no significant effects	73.29 ± 2.23%	–
